# Test results taken from PubChem BioAssay (NCI).
#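 The concentration for 50% growth inhibition is given as GI50. At the TGI there is no net growth.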
# Tests used:
# Test in all cases: NCI anticancer screen, dose series, 384-well format
# [1] = system: 786-0 renal
# [2] = system: A498 renal
# [3] = system: A549 NSCLC
# [4] = system: ACHN renal
# [5] = system: BT-549 breast
# [6] = system: CAKI-1 renal
# [7] = system: CCRF-CEM leukemia
# [8] = system: COLO 205 colon
# [9] = system: DU-145 prostate
# [10] = system: EKVX NSCLC
# [11] = system: HCC-2998 colon
# [12] = system: HCT-116 colon
# [13] = system: HCT-15 colon
# [14] = system: HL-60(TB) leukemia
# [15] = system: HOP-62 NSCLC
# [16] = system: HOP-92 NSCLC
# [17] = system: HS 578T breast
# [18] = system: HT29 colon
# [19] = system: IGROV1 ovarian
# [20] = system: K-562 leukemia
# [21] = system: KM12 colon
# [22] = system: LOX IMVI melanoma
# [23] = system: M14 melanoma
# [24] = system: MALME-3M melanoma
# [25] = system: MCF7 breast
# [26] = system: MDA-MB-231 breast
# [27] = system: MDA-MB-435 melanoma
# [28] = system: MDA-MB-468 breast
# [29] = system: MOLT-4 leukemia
# [30] = system: NCI-H226 lung
# [31] = system: NCI-H23 lung
# [32] = system: NCI-H322M lung
# [33] = system: NCI-H460 NSCLC
# [34] = system: NCI-H522 lung
# [35] = system: NCI/ADR-RES ovarian
# [36] = system: OVCAR-3 ovarian
# [37] = system: OVCAR-4 ovarian
# [38] = system: OVCAR-5 ovarian
# [39] = system: OVCAR-8 ovarian
# [40] = system: PC-3 prostate
# [41] = system: RPMI-8226 leukemia
# [42] = system: RXF 393 renal
# [43] = system: SF-268 CNS
# [44] = system: SF-295 CNS
# [45] = system: SF-539 CNS
# [46] = system: SK-MEL-2 melanoma
# [47] = system: SK-MEL-28 melanoma
# [48] = system: SK-MEL-5 melanoma
# [49] = system: SK-OV-3 ovarian
# [50] = system: SN12C renal
# [51] = system: SNB-19 CNS
# [52] = system: SNB-75 CNS
# [53] = system: SR leukemia
# [54] = system: SW-620 colon
# [55] = system: T-47D breast
# [56] = system: TK-10 renal
# [57] = system: U251 glioblastoma
# [58] = system: UACC-257 melanoma
# [59] = system: UACC-62 melanoma
# [60] = system: UO-31 renal
smiles,measurement,setting,value
N#Cc1ccnc(N2C(=O)CC[C@H]2C(=O)N(c2cncc(F)c2)[C@H](C(=O)NC2CC(F)(F)C2)c2ccccc2Cl)c1,GI50,[1],> 100 µM
same,TGI,[1],> 100 µM
same,GI50,[2],> 100 µM
same,TGI,[2],> 100 µM
same,GI50,[3],> 90.8 µM
same,TGI,[3],> 100 µM
same,GI50,[4],> 100 µM
same,TGI,[4],> 100 µM
same,GI50,[5],> 100 µM
same,TGI,[5],> 100 µM
same,GI50,[6],> 55.4 µM
same,TGI,[6],> 82.9 µM
same,GI50,[7],> 72.8 µM
same,TGI,[7],> 100 µM
same,GI50,[8],> 100 µM
same,TGI,[8],> 100 µM
same,GI50,[9],> 100 µM
same,TGI,[9],> 100 µM
same,GI50,[10],> 100 µM
same,TGI,[10],> 100 µM
same,GI50,[11],> 100 µM
same,TGI,[11],> 100 µM
same,GI50,[12],28.6 µM
same,TGI,[12],> 100 µM
same,GI50,[13],> 100 µM
same,TGI,[13],> 100 µM
same,GI50,[14],> 100 µM
same,TGI,[14],> 100 µM
same,GI50,[15],> 100 µM
same,TGI,[15],> 100 µM
same,GI50,[16],34.3 µM
same,TGI,[16],> 100 µM
same,GI50,[17],> 87.8 µM
same,TGI,[17],> 100 µM
same,GI50,[18],> 95.3 µM
same,TGI,[18],> 100 µM
same,GI50,[19],> 100 µM
same,TGI,[19],> 100 µM
same,GI50,[20],99.2 µM
same,TGI,[20],> 100 µM
same,GI50,[21],> 100 µM
same,TGI,[21],> 100 µM
same,GI50,[22],> 100 µM
same,TGI,[22],> 100 µM
same,GI50,[23],> 100 µM
same,TGI,[23],> 100 µM
same,GI50,[24],> 100 µM
same,TGI,[24],> 100 µM
same,GI50,[25],> 100 µM
same,TGI,[25],> 100 µM
same,GI50,[26],> 100 µM
same,TGI,[26],> 100 µM
same,GI50,[27],> 100 µM
same,TGI,[27],> 100 µM
same,GI50,[28],> 100 µM
same,TGI,[28],> 100 µM
same,GI50,[29],30.3 µM
same,TGI,[29],> 100 µM
same,GI50,[30],> 84.9 µM
same,TGI,[30],> 100 µM
same,GI50,[31],> 89.5 µM
same,TGI,[31],> 100 µM
same,GI50,[32],> 100 µM
same,TGI,[32],> 100 µM
same,GI50,[33],89.7 µM
same,TGI,[33],> 100 µM
same,GI50,[34],97.9 µM
same,TGI,[34],> 100 µM
same,GI50,[35],> 100 µM
same,TGI,[35],> 100 µM
same,GI50,[36],> 96.1 µM
same,TGI,[36],> 100 µM
same,GI50,[37],> 86.7 µM
same,TGI,[37],> 100 µM
same,GI50,[38],> 100 µM
same,TGI,[38],> 100 µM
same,GI50,[39],> 100 µM
same,TGI,[39],> 100 µM
same,GI50,[40],> 100 µM
same,TGI,[40],> 100 µM
same,GI50,[41],> 100 µM
same,TGI,[41],> 100 µM
same,GI50,[42],> 77.2 µM
same,TGI,[42],> 100 µM
same,GI50,[43],> 100 µM
same,TGI,[43],> 100 µM
same,GI50,[44],> 100 µM
same,TGI,[44],> 100 µM
same,GI50,[45],> 100 µM
same,TGI,[45],> 100 µM
same,GI50,[46],> 100 µM
same,TGI,[46],> 100 µM
same,GI50,[47],> 100 µM
same,TGI,[47],> 100 µM
same,GI50,[48],> 100 µM
same,TGI,[48],> 100 µM
same,GI50,[49],> 100 µM
same,TGI,[49],> 100 µM
same,GI50,[50],> 100 µM
same,TGI,[50],> 100 µM
same,GI50,[51],> 100 µM
same,TGI,[51],> 100 µM
same,GI50,[52],> 100 µM
same,TGI,[52],> 100 µM
same,GI50,[53],31.4 µM
same,TGI,[53],> 95.8 µM
same,GI50,[54],> 100 µM
same,TGI,[54],> 100 µM
same,GI50,[55],> 100 µM
same,TGI,[55],> 100 µM
same,GI50,[56],> 100 µM
same,TGI,[56],> 100 µM
same,GI50,[57],> 100 µM
same,TGI,[57],> 100 µM
same,GI50,[58],> 100 µM
same,TGI,[58],> 100 µM
same,GI50,[59],> 100 µM
same,TGI,[59],> 100 µM
same,GI50,[60],> 100 µM
same,TGI,[60],> 100 µM
